The source of these data is patent US11872202B2, “Pleuromutilin cinnamic acid ester compounds with activities against antibiotic-resistant infections” (SHAANXI UNIVERSITY OF SCIENCE AND TECHNOLOGY, priority 2021, dated 2024).

Common to all, as to assay: MIC, micro-broth dilution method
Common to all, as to assay type: cell-based

For assay [1], the system named is Staphylococcus aureus ATCC29213. As for the experimental part: (§1) The minimum inhibitory concentration (MIC) of pleuromutilin cinnamate easters and their starting materials was tested by a micro-broth dilution method, with retamoline, vornimulin and tiamulin as positive controls.
(§2) The experimental strains included Gram-positive bacteria: Methicillin-sensitive Staphylococcus epidermidis ATCC12228, Staphylococcus aureus ATCC29213 and ATCC25923, and Methicillin-resistant Staphylococcus aureus ATCC33591; Gram-negative bacteria: Acinetobacter baumannii ATCC19606 and E. coli Bacillus ATCC25922 (the strains used were from the American type culture collection (ATCC)).

Assay [2] deals with Acinetobacter baumannii ATCC19606. As for the experimental part: as §1, §2
The subject of assay [3] is Escherichia coli ATCC25922. As for the experimental part:
as §1, §2

Assay [4] concerns Staphylococcus aureus ATCC25923. As for the experimental part: as §1, §2
Assay [5] deals with Methicillin-resistant Staphylococcus aureus ATCC33591. As for the experimental part:
as §1, §2

The test system of assay [6] is Methicillin-sensitive Staphylococcus epidermidis ATCC12228. As for the experimental part:
as §1, §2

Setting [7] is: Staphylococcus aureus ATCC29213, 37° C., 20-22 h, read-out: Minimum inhibitory concentration.
[8] abbreviates: Acinetobacter baumannii ATCC19606, 37° C., 20-22 h, read-out: Minimum inhibitory concentration.
Where [9] appears, read: Escherichia coli ATCC25922, 37° C., 20-22 h, read-out: Minimum inhibitory concentration.
The mark [10] stands for this setting: Staphylococcus aureus ATCC25923, 37° C., 20-22 h, read-out: Minimum inhibitory concentration.
[11] abbreviates: Methicillin-resistant Staphylococcus aureus ATCC33591, 37° C., 20-22 h, read-out: Minimum inhibitory concentration.
Setting [12] is: Methicillin-sensitive Staphylococcus epidermidis ATCC12228, 37° C., 20-22 h, read-out: Minimum inhibitory concentration.
Setting [13] is: Staphylococcus aureus, ATCC29213, read-out: Minimum inhibitory concentration.
[14] abbreviates: Acinetobacter baumannii, ATCC19606, read-out: Minimum inhibitory concentration.
Where [15] appears, read: Escherichia coli, ATCC25922, read-out: Minimum inhibitory concentration.
Where [16] appears, read: Staphylococcus aureus, ATCC25923, read-out: Minimum inhibitory concentration.
[17] abbreviates: Staphylococcus aureus, ATCC33591, read-out: Minimum inhibitory concentration.
The mark [18] stands for this setting: Staphylococcus epidermidis, ATCC12228, read-out: Minimum inhibitory concentration.

Each structure is given as a SMILES string. In brackets after ≈: the same amount, converted by molar mass. Read-outs that look alike come from different tables or passages of the source. A value given as a limit tells only on which side of the number the result lay.

For `C=C[C@]1(C)C[C@@H](OC(=O)COC(=O)/C=C/c2cccc(F)c2)[C@]2(C)[C@H](C)CC[C@]3(CCC(=O)[C@H]32)[C@@H](C)[C@@H]1O` [Compound 8, (E)-2-(((3aR,4R,5R,8S,9R,12R)-8-hydroxy-4,7,9,12-tetramethyl-3-oxo-7-vinyldecahydro-4,9a-propanocyclopenta[8]annulen-5-yl)oxy)-2-oxoethyl 3-(3-fluorophenyl)acrylate], the MIC in assay [1] (setting [7]) is 32 µg/mL (≈ 60.8 µM); in assay [2] (setting [8]) it was over 256 µg/mL; in assay [3] (setting [9]), over 256 µg/mL; in assay [4] (setting [10]) it was 16 µg/mL (≈ 30.4 µM); in assay [5] (setting [11]), 64 µg/mL (≈ 122 µM); in assay [6] (setting [12]), 32 µg/mL (≈ 60.8 µM).
For `C=C[C@]1(C)C[C@@H](OC(=O)COC(=O)/C=C/c2cccc(Cl)c2)[C@]2(C)[C@H](C)CC[C@]3(CCC(=O)[C@H]32)[C@@H](C)[C@@H]1O` [Compound 2, (E)-2-(((3aR,4R,5R,8S,9R,12R)-8-hydroxy-4,7,9,12-tetramethyl-3-oxo-7-vinyldecahydro-4,9a-propanocyclopenta[8]annulen-5-yl)oxy)-2-oxoethyl 3-(3-chlorophenyl)acrylate], the MIC amounted to 32 µg/mL (≈ 58.9 µM) in assay [1] (setting [7]); 128 µg/mL (≈ 236 µM) in assay [2] (setting [8]); 64 µg/mL (≈ 118 µM) in assay [3] (setting [9]); 16 µg/mL (≈ 29.5 µM) in assay [4] (setting [10]); 32 µg/mL (≈ 58.9 µM) in assay [5] (setting [11]); 8 µg/mL (≈ 14.7 µM) in assay [6] (setting [12]). In assay [6] (methicillin-sensitive Staphylococcus epidermidis, statement in words from Table 1), the “inhibitory effect compared with the three tested positive controls” value is “better than that of the positive controls”.
Turning to `C=C[C@]1(C)C[C@@H](OC(=O)COC(=O)/C=C/c2ccccc2)[C@]2(C)[C@H](C)CC[C@]3(CCC(=O)[C@H]32)[C@@H](C)[C@@H]1O` [Compound 3, 2-(((3aR,4R,5R,8S,9R,12R)-8-hydroxy-4,7,9,12-tetramethyl-3-oxo-7-vinyldecahydro-4,9a-propanocyclopenta[8]annulen-5-yl)oxy)-2-oxoethyl cinnamate], the MIC in assay [1] (setting [7]) was 16 µg/mL (≈ 31.5 µM); in assay [2] (setting [8]), over 256 µg/mL; in assay [3] (setting [9]), 128 µg/mL (≈ 252 µM); in assay [4] (setting [10]) it was 4 µg/mL (≈ 7.86 µM); in assay [5] (setting [11]), 32 µg/mL (≈ 62.9 µM); in assay [6] (setting [12]), 16 µg/mL (≈ 31.5 µM).
For the compound `C=C[C@]1(C)C[C@@H](OC(=O)CS[C@@H]2C[C@H]3CC[C@@H](C2)N3C)[C@]2(C)[C@H](C)CC[C@]3(CCC(=O)[C@H]32)[C@@H](C)[C@@H]1O` [Retapamulin, reference compound], the MIC in assay [1] (setting [13]) came to 4 µg/mL (≈ 7.73 µM); in assay [2] (setting [14]), 16 µg/mL (≈ 30.9 µM); in assay [3] (setting [15]), 32 µg/mL (≈ 61.8 µM); in assay [4] (setting [16]) it was 4 µg/mL (≈ 7.73 µM); in assay [5] (setting [17]), 32 µg/mL (≈ 61.8 µM); in assay [6] (setting [18]), 32 µg/mL (≈ 61.8 µM).
For the compound `C=C[C@]1(C)C[C@@H](OC(=O)COC(=O)/C=C/c2ccc(C(F)(F)F)cc2F)[C@]2(C)[C@H](C)CC[C@]3(CCC(=O)[C@H]32)[C@@H](C)[C@@H]1O` [Compound 19, (E)-2-(((3aR,4R,5R,8S,9R,12R)-8-hydroxy-4,7,9,12-tetramethyl-3-oxo-7-vinyldecahydro-4,9a-propanocyclopenta[8]annulen-5-yl)oxy)-2-oxoethyl 3-(2-fluoro-4-(trifluoromethyl)phenyl)acrylate], the MIC in assay [1] (setting [7]) was 16 µg/mL (≈ 26.9 µM); in assay [2] (setting [8]) it was over 256 µg/mL; in assay [3] (setting [9]) it was 128 µg/mL (≈ 215 µM); in assay [4] (setting [10]) it was 8 µg/mL (≈ 13.5 µM); in assay [5] (setting [11]), 64 µg/mL (≈ 108 µM); in assay [6] (setting [12]), 16 µg/mL (≈ 26.9 µM).
Turning to `C=C[C@]1(C)C[C@@H](OC(=O)COC(=O)/C=C/c2ccc(C#N)cc2)[C@]2(C)[C@H](C)CC[C@]3(CCC(=O)[C@H]32)[C@@H](C)[C@@H]1O` [Compound 6, (E)-2-(((3aR,4R,5R,8S,9R,12R)-8-hydroxy-4,7,9,12-tetramethyl-3-oxo-7-vinyldecahydro-4,9a-propanocyclopenta[8]annulen-5-yl)oxy)-2-oxoethyl 3-(4-cyanophenyl)acrylate], the MIC in assay [1] (setting [13]) was 64 µg/mL (≈ 120 µM); in assay [2] (setting [14]) it was over 256 µg/mL; in assay [3] (setting [15]), over 256 µg/mL; in assay [4] (setting [16]), 32 µg/mL (≈ 60 µM); in assay [5] (setting [17]) it was 64 µg/mL (≈ 120 µM); in assay [6] (setting [18]), 64 µg/mL (≈ 120 µM).
`C=C[C@]1(C)C[C@@H](OC(=O)COC(=O)/C=C/c2ccc(OC)c(OC)c2)[C@]2(C)[C@H](C)CC[C@]3(CCC(=O)[C@H]32)[C@@H](C)[C@@H]1O` [Compound 7, (E)-2-(((3aR,4R,5R,8S,9R,12R)-8-hydroxy-4,7,9,12-tetramethyl-3-oxo-7-vinyldecahydro-4,9a-propanocyclopenta[8]annulen-5-yl)oxy)-2-oxoethyl 3-(3,4-dimethoxyphenyl)acrylate]: the MIC in assay [1] (setting [7]) is 8 µg/mL (≈ 14.1 µM); in assay [2] (setting [8]), over 256 µg/mL; in assay [3] (setting [9]), 64 µg/mL (≈ 113 µM); in assay [4] (setting [10]), 4 µg/mL (≈ 7.03 µM); in assay [5] (setting [11]), 32 µg/mL (≈ 56.3 µM); in assay [6] (setting [12]), 16 µg/mL (≈ 28.1 µM).
Turning to `C=C[C@]1(C)C[C@@H](OC(=O)COC(=O)/C=C/c2cccc(OCc3ccccc3)c2)[C@]2(C)[C@H](C)CC[C@]3(CCC(=O)[C@H]32)[C@@H](C)[C@@H]1O` [Compound 13, (E)-2-(((3aR,4R,5R,8S,9R,12R)-8-hydroxy-4,7,9,12-tetramethyl-3-oxo-7-vinyldecahydro-4,9a-propanocyclopenta[8]annulen-5-yl)oxy)-2-oxoethyl 3-(3-(benzyloxy)phenyl)acrylate], the MIC was 32 µg/mL (≈ 52.1 µM) in assay [1] (setting [7]); 64 µg/mL (≈ 104 µM) in assay [2] (setting [8]); over 256 µg/mL in assay [3] (setting [9]); 16 µg/mL (≈ 26 µM) in assay [4] (setting [10]); 128 µg/mL (≈ 208 µM) in assay [5] (setting [11]); 32 µg/mL (≈ 52.1 µM) in assay [6] (setting [12]). For the same compound, in assay [2] (Acinetobacter baumannii, statement in words from Table 1), the “inhibition compared with tiamulin” value is reported as “as much as tiamulin”.
As for `C=C[C@]1(C)C[C@@H](OC(=O)COC(=O)/C=C/c2cccc(C(F)(F)F)c2)[C@]2(C)[C@H](C)CC[C@]3(CCC(=O)[C@H]32)[C@@H](C)[C@@H]1O` [Compound 16, (E)-2-(((3aR,4R,5R,8S,9R,12R)-8-hydroxy-4,7,9,12-tetramethyl-3-oxo-7-vinyldecahydro-4,9a-propanocyclopenta[8]annulen-5-yl)oxy)-2-oxoethyl 3-(3-(trifluoromethyl)phenyl)acrylate], the MIC in assay [1] (setting [7]) was found to be 64 µg/mL (≈ 111 µM); in assay [2] (setting [8]) it was 128 µg/mL (≈ 222 µM); in assay [3] (setting [9]), 64 µg/mL (≈ 111 µM); in assay [4] (setting [10]), 32 µg/mL (≈ 55.5 µM); in assay [5] (setting [11]), 256 µg/mL (≈ 444 µM); in assay [6] (setting [12]), 64 µg/mL (≈ 111 µM).
Turning to `C=C[C@]1(C)C[C@@H](OC(=O)COC(=O)/C=C/c2ccc(F)c(F)c2F)[C@]2(C)[C@H](C)CC[C@]3(CCC(=O)[C@H]32)[C@@H](C)[C@@H]1O` [Compound 12, (E)-2-(((3aR,4R,5R,8S,9R,12R)-8-hydroxy-4,7,9,12-tetramethyl-3-oxo-7-vinyldecahydro-4,9a-propanocyclopenta[8]annulen-5-yl)oxy)-2-oxoethyl 3-(2,3,4-trifluorophenyl)acrylate], the MIC was determined as 64 µg/mL (≈ 114 µM) in assay [1] (setting [7]); 128 µg/mL (≈ 228 µM) in assay [2] (setting [8]); 64 µg/mL (≈ 114 µM) in assay [3] (setting [9]); 32 µg/mL (≈ 56.9 µM) in assay [4] (setting [10]); 128 µg/mL (≈ 228 µM) in assay [5] (setting [11]); 16 µg/mL (≈ 28.4 µM) in assay [6] (setting [12]).
For `C=C[C@]1(C)C[C@@H](OC(=O)COC(=O)/C=C/c2ccc3ccccc3c2)[C@]2(C)[C@H](C)CC[C@]3(CCC(=O)[C@H]32)[C@@H](C)[C@@H]1O` [Compound 18, (E)-2-(((3aR,4R,5R,7S,8S,9R,9aS,12R)-8-hydroxy-4,7,9,12-tetramethyl-3-oxo-7-vinyldecahydro-4,9a-propanocyclopenta[8]annulen-5-yl)oxy)-2-oxoethyl 3-(naphthalen-2-yl)acrylate], the MIC in assay [1] (setting [7]) came out at 32 µg/mL (≈ 57.3 µM); in assay [2] (setting [8]), 256 µg/mL (≈ 458 µM); in assay [3] (setting [9]) it was 256 µg/mL (≈ 458 µM); in assay [4] (setting [10]), 16 µg/mL (≈ 28.6 µM); in assay [5] (setting [11]) it was 128 µg/mL (≈ 229 µM); in assay [6] (setting [12]), 32 µg/mL (≈ 57.3 µM).
